What was measured:
bamyardgrass = test: Test B flood test barnyardgrass; format: in vivo, Echinochloa crus-galli; details: for Plant response rating, Barnyardgrass (0 to 10 scale, 0 is no effect, 10 is complete control): Rate 62 g/ha
Summary of the method: (§1)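 Read-out is a visual response score from 0 (no effect) to 10 (complete control), assigned by comparison with untreated controls. Treatment was applied at the 2-leaf stage, and plants stayed in the greenhouse for twelve to sixteen days before scoring.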

duck salad = test: Test B flood test duck salad; format: in vivo, Heteranthera limosa; details: for Plant response rating, Ducksalad (0 to 10 scale, 0 is no effect, 10 is complete control): Rate 62 g/ha
Summary of the method: as §1

smallflower flatsedge = test: Test B flood test smallflower flatsedge; format: in vivo, Cyperus difformis; details: for Plant response rating, S. Flatsedge (0 to 10 scale, 0 is no effect, 10 is complete control): Rate 62 g/ha
Summary of the method: as §1

rice = test: Test B flood test rice; format: in vivo, Oryza sativa; details: for Plant response rating, Rice (0 to 10 scale, 0 is no effect, 10 is complete control): Rate 62 g/ha
Summary of the method: as §1

crabgrass = test: Test B pre/postemergence crabgrass; format: in vivo, Digitaria sanguinalis
Summary of the method: (§2)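 Herbicidal effect was estimated by eye on a ten-point control scale after plants spent twelve to sixteen days in a greenhouse following soil or foliar treatment. Foliar sprays targeted plants at one to four leaves; all doses were formulated in a non-phytotoxic solvent with surfactant.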

cocklebur = test: Test B pre/postemergence cocklebur; format: in vivo, Xanthium strumarium
Summary of the method: as §2

blackgrass = test: Test B pre/postemergence blackgrass; format: in vivo, Alopecurus myosuroides
Summary of the method: as §2

soybean = test: Test B pre/postemergence soybean; format: in vivo, Glycine max
Summary of the method: as §2

pigweed = test: Test B pre/postemergence pigweed; format: in vivo, Amaranthus retroflexus
Summary of the method: as §2

wheat = test: Test B pre/postemergence wheat; format: in vivo, Triticum aestivum
Summary of the method: as §2

sugar beet = test: Test B pre/postemergence sugar beet; format: in vivo, Beta vulgaris
Summary of the method: as §2

velvetleaf = test: Test B pre/postemergence velvetleaf; format: in vivo, Abutilon theophrasti
Summary of the method: as §2

corn = test: Test B pre/postemergence corn; format: in vivo, Zea mays
Summary of the method: as §2

surinam grass = test: Test B pre/postemergence surinam grass; format: in vivo, Brachiaria decumbens
Summary of the method: as §2

wild oat = test: Test B pre/postemergence wild oat; format: in vivo, Avena fatua
Summary of the method: as §2

purple nutsedge = test: Test B pre/postemergence purple nutsedge; format: in vivo, Cyperus rotundus
Summary of the method: as §2

giant foxtail = test: Test B pre/postemergence giant foxtail; format: in vivo, Setaria faberii
Summary of the method: as §2

rape = test: Test B pre/postemergence rape; format: in vivo, Brassica napus
Summary of the method: as §2

morningglory = test: Test B pre/postemergence morningglory; format: in vivo, Ipomoea hederacea
Summary of the method: as §2

[1] = flood test species, Pre-emergence, visual evaluation after twelve to sixteen days
[2] = Rate 125 g/ha, Pre-emergence, flood test species, scale 0 to 10 where 0 is no effect and 10 is complete control
[3] = Rate 250 g/ha, Pre-emergence, flood-test species, scale 0 to 10, 0 is no effect, 10 is complete control
[4] = Rate 500 g/ha, Pre-emergence, flood test species, scale 0 to 10 (0 no effect, 10 complete control)
[5] = Postemergence, Rate 250 g/ha, scale 0 to 10
[6] = Postemergence, Rate 500 g/ha, scale 0 to 10, 0 is no effect, 10 is complete control
[7] = Preemergence, Rate 62 g/ha, scale of 0 to 10 where 0 is no effect and 10 is complete control
[8] = Preemergence, Rate 125 g/ha, scale 0 to 10, 0 is no effect, 10 is complete control
[9] = Preemergence, Rate 500 g/ha, scale of 0 to 10 where 0 is no effect and 10 is complete control
[10] = Rate 62 g/ha, Postemergence, scale 0 to 10, 0 no effect, 10 complete control
[11] = Postemergence, Rate 125 g/ha, scale 0 to 10, 0 is no effect, 10 is complete control
[12] = Preemergence, Rate 250 g/ha, scale 0 to 10, 0 is no effect, 10 is complete control
[13] = Rate 125 g/ha, under heading Pre-emergence, flood test species, visual evaluation after twelve to sixteen days
[14] = Rate 250 g/ha, Pre-emergence (flood test species), scale 0 to 10, 0 is no effect, 10 is complete control
[15] = Rate 500 g/ha, Pre-emergence section of Table B, 0 to 10 scale (0 no effect, 10 complete control)

Structure (SMILES): CC(C)N(C(=O)n1oc(=O)n(Cc2cccnc2)c1=O)c1ccc(F)cc1 [Compound 366]
- Plant response rating, Barnyardgrass (0 to 10 scale, 0 is no effect, 10 is complete control) (bamyardgrass; [1]): 0
- Barnyardgrass plant response rating (bamyardgrass; [2]): 0
- Barnyardgrass plant response rating (bamyardgrass; [3]): 0
- Barnyardgrass plant response rating (bamyardgrass; [4]): 0
- Plant response rating, Ducksalad (0 to 10 scale, 0 is no effect, 10 is complete control) (duck salad; [1]): 0
- Ducksalad plant response rating (duck salad; [2]): 0
- Ducksalad plant response rating (duck salad; [3]): 0
- Ducksalad plant response rating (duck salad; [4]): 0
- Plant response rating, S. Flatsedge (0 to 10 scale, 0 is no effect, 10 is complete control) (smallflower flatsedge; [1]): 0
- S. Flatsedge plant response rating (smallflower flatsedge; [2]): 0
- S. Flatsedge plant response rating (smallflower flatsedge; [3]): 0
- S. Flatsedge plant response rating (smallflower flatsedge; [4]): 0
- Plant response rating, Rice (0 to 10 scale, 0 is no effect, 10 is complete control) (rice; [1]): 0
- Rice plant response rating (rice; [2]): 0
- Rice plant response rating (rice; [3]): 0
- Rice plant response rating (rice; [4]): 0

Structure (SMILES): C=C(Cn1c(=O)on(C(=O)N(c2ccccc2)C(C)C)c1=O)c1cccnc1 [Compound 498]
- Crabgrass plant response rating (crabgrass; [5]): 0
- Plant response rating, Crabgrass (crabgrass; [6]): 2
- Plant response rating, Crabgrass (crabgrass; [7]): 0
- Crabgrass plant response rating (crabgrass; [8]): 2
- Crabgrass plant response rating (crabgrass; [9]): 5
- Crabgrass plant response rating (crabgrass; [10]): 0
- Cocklebur plant response rating (cocklebur; [11]): 0
- Cocklebur plant response rating (cocklebur; [5]): 0
- Plant response rating, Cocklebur (cocklebur; [6]): 0
- Plant response rating, Cocklebur (cocklebur; [7]): 0
- Cocklebur plant response rating (cocklebur; [8]): 0
- Cocklebur plant response rating (cocklebur; [12]): 0
- Cocklebur plant response rating (cocklebur; [9]): 0
- Cocklebur plant response rating (cocklebur; [10]): 0
- Blackgrass plant response rating (blackgrass; [11]): 0
- Plant response rating, Blackgrass (blackgrass; [6]): 5
- Plant response rating, Blackgrass (blackgrass; [7]): 0
- Blackgrass plant response rating (blackgrass; [8]): 0
- Blackgrass plant response rating (blackgrass; [12]): 0
- Blackgrass plant response rating (blackgrass; [9]): 0
- Blackgrass plant response rating (blackgrass; [10]): 0
- Plant response rating, Barnyardgrass (0 to 10 scale, 0 is no effect, 10 is complete control) (bamyardgrass; [1]): 0
- Barnyardgrass plant response rating (0 to 10 scale, 0 is no effect, 10 is complete control) (bamyardgrass; [13]): 0
- Barnyardgrass plant response rating (bamyardgrass; [14]): 0
- Barnyardgrass plant response rating (bamyardgrass; [15]): 0
- Soybean plant response rating (soybean; [11]): 1
- Plant response rating, Soybean (soybean; [6]): 1
- Plant response rating, Soybean (soybean; [7]): 0
- Soybean plant response rating (soybean; [8]): 0
- Soybean plant response rating (soybean; [9]): 0
- Soybean plant response rating (soybean; [10]): 1
- Redroot pigweed plant response rating (pigweed; [11]): 0
- Plant response rating, Redroot pigweed (pigweed; [6]): 0
- Plant response rating, Redroot pigweed (pigweed; [7]): 0
- Redroot pigweed plant response rating (pigweed; [8]): 0
- Redroot pigweed plant response rating (pigweed; [9]): 0
- Redroot pigweed plant response rating (pigweed; [10]): 0
- Wheat plant response rating (wheat; [11]): 0
- Plant response rating, Wheat (wheat; [6]): 0
- Plant response rating, Wheat (wheat; [7]): 0
- Wheat plant response rating (wheat; [8]): 0
- Wheat plant response rating (wheat; [9]): 0
- Wheat plant response rating (wheat; [10]): 0
- Sugarbeets plant response rating (sugar beet; [11]): 0
- Plant response rating, Sugarbeets (sugar beet; [6]): 0
- Plant response rating, Sugarbeets (sugar beet; [7]): 0
- Sugarbeets plant response rating (sugar beet; [8]): 0
- Sugarbeets plant response rating (sugar beet; [9]): 0
- Sugarbeets plant response rating (sugar beet; [10]): 0
- Plant response rating, Ducksalad (0 to 10 scale, 0 is no effect, 10 is complete control) (duck salad; [1]): 0
- Ducksalad plant response rating (0 to 10 scale, 0 is no effect, 10 is complete control) (duck salad; [13]): 0
- Ducksalad plant response rating (duck salad; [14]): 0
- Ducksalad plant response rating (duck salad; [15]): 0
- Velvetleaf plant response rating (velvetleaf; [11]): 0
- Plant response rating, Velvetleaf (velvetleaf; [6]): 2
- Plant response rating, Velvetleaf (velvetleaf; [7]): 0
- Velvetleaf plant response rating (velvetleaf; [8]): 0
- Velvetleaf plant response rating (velvetleaf; [9]): 0
- Velvetleaf plant response rating (velvetleaf; [10]): 0
- Corn plant response rating (corn; [11]): 0
- Corn plant response rating (corn; [5]): 0
- Plant response rating, Corn (corn; [6]): 0
- Plant response rating, Corn (corn; [7]): 0
- Corn plant response rating (corn; [8]): 0
- Corn plant response rating (corn; [9]): 0
- Corn plant response rating (corn; [10]): 0
- Plant response rating, S. Flatsedge (0 to 10 scale, 0 is no effect, 10 is complete control) (smallflower flatsedge; [1]): 0
- S. Flatsedge plant response rating (0 to 10 scale, 0 is no effect, 10 is complete control) (smallflower flatsedge; [13]): 0
- S. Flatsedge plant response rating (smallflower flatsedge; [14]): 0
- S. Flatsedge plant response rating (smallflower flatsedge; [15]): 0
- B. signalgrass plant response rating (surinam grass; [11]): 0
- B. signalgrass plant response rating (surinam grass; Postemergence, Rate 250 g/ha, scale 0 to 10, 0 no effect, 10 complete control): 0
- Plant response rating, B. signalgrass (surinam grass; [6]): 0
- Plant response rating, B. signalgrass (surinam grass; [7]): 0
- B. signalgrass plant response rating (surinam grass; [8]): 0
- B. signalgrass plant response rating (surinam grass; [12]): 0
- B. signalgrass plant response rating (surinam grass; Preemergence, Rate 500 g/ha, scale 0 to 10, 0 is no effect, 10 is complete control): 0
- B. signalgrass plant response rating (surinam grass; [10]): 0
- Wild oats plant response rating (wild oat; [11]): 0
- Plant response rating, Wild oats (wild oat; [6]): 0
- Plant response rating, Wild oats (wild oat; [7]): 0
- Wild oats plant response rating (wild oat; [8]): 0
- Wild oats plant response rating (wild oat; [9]): 0
- Wild oats plant response rating (wild oat; [10]): 0
- Nutsedge plant response rating (purple nutsedge; [11]): 0
- Plant response rating, Nutsedge (purple nutsedge; [6]): 0
- Plant response rating, Nutsedge (purple nutsedge; [7]): 0
- Nutsedge plant response rating (purple nutsedge; [8]): 0
- Nutsedge plant response rating (purple nutsedge; [9]): 0
- Nutsedge plant response rating (purple nutsedge; [10]): 0
- Giant foxtail plant response rating (giant foxtail; [11]): 2
- Plant response rating, Giant foxtail (giant foxtail; [6]): 3
- Plant response rating, Giant foxtail (giant foxtail; [7]): 0
- Giant foxtail plant response rating (giant foxtail; [8]): 2
- Giant foxtail plant response rating (giant foxtail; [9]): 8
- Giant foxtail plant response rating (giant foxtail; [10]): 0
- Rape plant response rating (rape; [11]): 0
- Plant response rating, Rape (rape; [6]): 0
- Plant response rating, Rape (rape; [7]): 0
- Rape plant response rating (rape; [8]): 0
- Rape plant response rating (rape; [9]): 0
- Rape plant response rating (rape; [10]): 0
- Plant response rating, Rice (0 to 10 scale, 0 is no effect, 10 is complete control) (rice; [1]): 0
- Rice plant response rating (0 to 10 scale, 0 is no effect, 10 is complete control) (rice; [13]): 0
- Rice plant response rating (rice; [14]): 0
- Rice plant response rating (rice; [15]): 0
- Morningglory plant response rating (morningglory; [11]): 3
- Plant response rating, Morningglory (morningglory; [6]): 4
- Plant response rating, Morningglory (morningglory; [7]): 0
- Morningglory plant response rating (morningglory; [8]): 0
- Morningglory plant response rating (morningglory; [9]): 0
- Morningglory plant response rating (morningglory; [10]): 1

Source: patent US6737383B1, “Herbicidal oxadiazolidines” (priority 1999, dated 2004)
